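Compound exposure: 48 hours, 5 concentrations, 96-well plates. GI50: concentration for 50% inhibition of growth. The concentration for full growth arrest is given as TGI.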
Legend:
Assay in all cases: NCI tumour cell line growth inhibition, 48 h
DLD-1 colon = test system: DLD-1 colon
DMS 114 small cell lung = test system: DMS 114 small cell lung
DMS 273 small cell lung = test system: DMS 273 small cell lung
HOP-18 NSCLC = test system: HOP-18 NSCLC
KM20L2 colon = test system: KM20L2 colon
M19-MEL melanoma = test system: M19-MEL melanoma
RXF-631 renal = test system: RXF-631 renal
SNB-78 CNS = test system: SNB-78 CNS
XF 498 CNS = test system: XF 498 CNS
P388 leukemia = test system: P388 leukemia
P388/ADR leukemia = test system: P388/ADR leukemia
SN12K1 renal = test system: SN12K1 renal

| Structure (SMILES) | TGI (DLD-1 colon) | TGI (DMS 114 small cell lung) | TGI (DMS 273 small cell lung) | TGI (HOP-18 NSCLC) | TGI (KM20L2 colon) | TGI (M19-MEL melanoma) | TGI (RXF-631 renal) | TGI (SNB-78 CNS) | TGI (XF 498 CNS) | GI50 (DLD-1 colon) | GI50 (DMS 273 small cell lung) | GI50 (KM20L2 colon) | GI50 (SNB-78 CNS) | TGI (P388 leukemia) | TGI (P388/ADR leukemia) | TGI (SN12K1 renal) |
| --- | --- | --- | --- | --- | --- | --- | --- | --- | --- | --- | --- | --- | --- | --- | --- | --- |
| c1ccc(C2C3=C(Nc4ncnn42)c2ccccc2C3)cc1 (stereo unspecified) | 38 µM | 24.1 µM | > 100 µM | > 100 µM | 24.5 µM | > 100 µM | > 100 µM | > 100 µM | > 100 µM |  |  |  |  |  |  |  |
| COc1ccc(C(C#N)NNC(=O)c2ccccc2O)cc1OC (stereo unspecified) | > 100 µM | 12.7 µM | 47.2 µM | > 100 µM | 62.5 µM | > 100 µM |  | > 100 µM |  |  |  |  |  |  |  |  |
| NC(N)=NS(=O)(=O)c1ccc(NCc2c3ccccc3[n+]([O-])c3ccccc23)cc1 | > 100 µM | 56.6 µM | > 100 µM | 52.3 µM | > 100 µM | > 100 µM |  | > 100 µM |  |  |  |  |  |  |  |  |
| CC1(C)CC(/C=C2/OC(=O)c3ccccc32)=C(C#N)C(=O)O1 | > 100 µM |  | > 100 µM |  | > 100 µM | > 100 µM | > 100 µM | > 100 µM | > 100 µM |  |  |  |  |  |  |  |
| N.N.N.O=[N+]([O-])[O-].O=[N+]([O-])[O-].O=[N+]([O-])[O-].O=[N+]([O-])[O-].[Co+3] | > 100 µM |  | > 100 µM |  | > 100 µM |  |  | > 100 µM |  | > 100 µM | > 100 µM | > 100 µM | > 100 µM |  |  |  |
| COC(=O)CC(=O)C[P+](c1ccccc1)(c1ccccc1)c1ccccc1 | > 218 µM | > 218 µM | > 218 µM | > 218 µM | > 218 µM | > 218 µM | > 218 µM |  | 201 µM |  |  |  |  |  |  |  |
| O=C1C(Cl)=C(N2CCN(C3=C(Cl)C(=O)c4ccccc4C3=O)CC2)C(=O)c2ccccc21 | 0.937 µM | 2.64 µM | 5.44 µM |  | 14 µM | 2.91 µM | 3.46 µM | 1.56 µM | 2.66 µM |  |  |  |  |  |  |  |
| CCOC(=O)C1Cc2[nH]c3ccccc3c2C(C)C1C (stereo unspecified) | 34.5 µM | 58.5 µM | 30.4 µM |  | 31.8 µM |  |  | 62.4 µM | 37.9 µM |  |  |  |  |  |  |  |
| COc1ccc(C2Oc3c(cc(O)c(OC)c3C)[C@@H]2C)cc1OC (stereo partly specified) | > 100 µM | > 100 µM | > 100 µM | > 100 µM | > 100 µM | > 100 µM | > 100 µM | > 100 µM | > 100 µM |  |  |  |  |  |  |  |
| Cn1cc2ccccc2c1-c1nc(N)nc(F)n1 | > 100 µM | > 100 µM | > 100 µM |  | > 100 µM | > 100 µM | > 100 µM | > 100 µM | > 100 µM |  |  |  |  |  |  |  |
| C/C(CCOC1CCCCO1)=C(\C)[Si](C)(C)C (stereo unspecified) | > 100 µM | > 100 µM |  |  | > 100 µM | > 100 µM |  | > 100 µM | > 100 µM |  |  |  |  |  |  |  |
| C=C(C(=O)C(=O)Oc1ccc(Cl)cc1)C(=O)c1ccc(C)cc1 | 99.3 µM | > 100 µM | > 100 µM | > 100 µM | > 100 µM | 35.4 µM | > 100 µM | > 100 µM | > 100 µM |  |  |  |  |  |  |  |
| COCCOCOc1ccc(OCc2ccccc2)cc1 | > 100 µM | > 100 µM | > 100 µM | > 100 µM | > 100 µM | > 100 µM |  | > 100 µM | > 100 µM |  |  |  |  | 60.7 µM | 89.1 µM | > 100 µM |
| O=c1[nH]n2c(=O)cc[nH]c2c1-c1nnns1 | > 100 µM | > 100 µM | > 100 µM |  | > 100 µM | > 100 µM |  | > 100 µM | > 100 µM |  |  |  |  |  |  |  |
| CC1(Cl)C(=O)NC(=O)N(C2CC(N=[N+]=[N-])C(CO)O2)C1N=[N+]=[N-] (stereo unspecified) | > 100 µM | > 100 µM | > 100 µM |  | > 100 µM | > 100 µM | > 100 µM |  | > 100 µM |  |  |  |  |  |  |  |
| N=C1CSC2=NC3=C(CCC/C3=C\c3ccccc3)C(c3ccccc3)N12 (stereo unspecified) | 19.4 µM | 8.57 µM | 15.8 µM |  | 16.8 µM | 18.3 µM |  | 23.6 µM | 35.1 µM |  |  |  |  |  |  |  |

From PubChem BioAssay (NCI)
